Experimental data: ChEMBL document CHEMBL1158264, “DNA topoisomerase I inhibitors: cytotoxic flavones from Lethedon tannaensis” (J Nat Prod, 1996)
In brackets after ≈: the same amount, converted by molar mass. Activity calls are given as the source filed them. The rule behind the calls is not given here.

Experiments:
[1] = test system: KB; assay: Cytotoxicity against human KB cells; type: functional, cell-based
[2] = species: Bos taurus; assay: Inhibition of calf thymus DNA topoisomerase 1 assessed as minimum efficient dose
[3] = test system: P388; assay: Cytotoxicity against mouse P388 cells; type: functional, cell-based
[4] = test system: P388; assay: Cytotoxicity against mouse P388 cells at 100 ug/mL; type: functional, cell-based
[5] = molecular target: T1, DNA topoisomerase 1 (Homo sapiens) (UniProt P11387); assay: Inhibition of DNA topoisomerase 1
T1 sequence (whole entry): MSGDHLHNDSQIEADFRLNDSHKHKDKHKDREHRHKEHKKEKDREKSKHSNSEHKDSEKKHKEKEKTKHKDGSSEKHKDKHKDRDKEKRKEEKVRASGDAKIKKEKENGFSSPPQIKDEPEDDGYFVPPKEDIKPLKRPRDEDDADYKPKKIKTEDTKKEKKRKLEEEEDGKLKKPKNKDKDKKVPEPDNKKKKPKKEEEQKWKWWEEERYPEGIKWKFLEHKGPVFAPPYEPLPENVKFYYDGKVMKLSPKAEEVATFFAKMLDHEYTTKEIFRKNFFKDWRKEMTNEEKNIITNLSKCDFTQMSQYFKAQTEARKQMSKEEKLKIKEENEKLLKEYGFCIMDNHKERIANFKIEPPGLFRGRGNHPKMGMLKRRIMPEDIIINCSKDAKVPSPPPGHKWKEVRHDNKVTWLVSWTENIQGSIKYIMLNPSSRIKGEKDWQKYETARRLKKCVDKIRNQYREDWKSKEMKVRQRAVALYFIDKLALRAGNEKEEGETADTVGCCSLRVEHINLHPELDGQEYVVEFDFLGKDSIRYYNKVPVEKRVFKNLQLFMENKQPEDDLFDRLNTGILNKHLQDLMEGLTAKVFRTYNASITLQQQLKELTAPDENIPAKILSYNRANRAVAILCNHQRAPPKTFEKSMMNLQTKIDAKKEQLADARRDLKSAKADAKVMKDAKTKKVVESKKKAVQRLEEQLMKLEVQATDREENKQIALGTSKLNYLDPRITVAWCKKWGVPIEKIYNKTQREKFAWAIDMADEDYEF

[6] = molecular target: DNA topoisomerase 2-alpha (Homo sapiens) (UniProt P11388); assay: Inhibition of DNA topoisomerase 2
DNA topoisomerase 2-alpha (Homo sapiens), sequence (P11388 whole entry): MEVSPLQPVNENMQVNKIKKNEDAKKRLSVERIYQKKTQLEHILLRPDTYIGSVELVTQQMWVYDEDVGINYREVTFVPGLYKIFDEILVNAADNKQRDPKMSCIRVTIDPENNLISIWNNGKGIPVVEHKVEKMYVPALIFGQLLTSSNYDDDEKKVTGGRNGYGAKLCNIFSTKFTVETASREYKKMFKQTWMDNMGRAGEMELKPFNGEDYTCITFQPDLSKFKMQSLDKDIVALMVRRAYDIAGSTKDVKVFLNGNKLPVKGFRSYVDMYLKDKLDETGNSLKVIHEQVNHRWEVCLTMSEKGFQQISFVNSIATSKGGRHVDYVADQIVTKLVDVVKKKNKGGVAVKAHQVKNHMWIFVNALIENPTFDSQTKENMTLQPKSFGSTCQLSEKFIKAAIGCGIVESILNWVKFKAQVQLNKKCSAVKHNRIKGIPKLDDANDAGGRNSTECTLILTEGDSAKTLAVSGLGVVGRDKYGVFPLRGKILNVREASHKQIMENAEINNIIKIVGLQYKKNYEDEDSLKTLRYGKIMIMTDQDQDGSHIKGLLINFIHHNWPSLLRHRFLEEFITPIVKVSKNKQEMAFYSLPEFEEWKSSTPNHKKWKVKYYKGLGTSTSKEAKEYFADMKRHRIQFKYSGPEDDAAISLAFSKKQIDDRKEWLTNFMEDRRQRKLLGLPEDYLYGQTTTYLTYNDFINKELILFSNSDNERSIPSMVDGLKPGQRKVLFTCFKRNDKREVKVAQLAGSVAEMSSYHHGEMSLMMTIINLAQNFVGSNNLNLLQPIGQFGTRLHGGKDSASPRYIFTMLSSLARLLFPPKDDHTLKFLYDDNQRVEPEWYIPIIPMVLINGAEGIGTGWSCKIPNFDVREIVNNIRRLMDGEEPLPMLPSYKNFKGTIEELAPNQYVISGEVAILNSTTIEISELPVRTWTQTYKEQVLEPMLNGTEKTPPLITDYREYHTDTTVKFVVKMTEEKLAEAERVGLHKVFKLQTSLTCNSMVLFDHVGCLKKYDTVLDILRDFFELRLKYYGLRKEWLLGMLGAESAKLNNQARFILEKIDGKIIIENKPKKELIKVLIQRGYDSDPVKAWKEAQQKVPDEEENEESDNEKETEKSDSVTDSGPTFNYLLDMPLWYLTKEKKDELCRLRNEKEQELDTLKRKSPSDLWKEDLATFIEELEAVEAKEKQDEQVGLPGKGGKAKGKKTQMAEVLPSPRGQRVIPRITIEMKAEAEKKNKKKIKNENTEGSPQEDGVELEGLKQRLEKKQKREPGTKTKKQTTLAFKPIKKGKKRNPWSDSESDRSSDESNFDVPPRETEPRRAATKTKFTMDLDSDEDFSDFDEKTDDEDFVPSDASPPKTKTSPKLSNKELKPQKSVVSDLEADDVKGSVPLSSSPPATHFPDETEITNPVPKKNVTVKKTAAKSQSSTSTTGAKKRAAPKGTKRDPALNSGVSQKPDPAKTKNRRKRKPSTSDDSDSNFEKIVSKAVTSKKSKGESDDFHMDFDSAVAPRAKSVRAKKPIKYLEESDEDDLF

[7] = species: Bos taurus; assay: Inhibition of calf thymus tubulin assembly

SMILES	IC50 [1]	MED [2]	Activity [4]	also measured
CC[C@@]1(O)C(=O)OCc2c1cc1n(c2=O)Cc2cc3ccccc3nc2-1 [CAMPTOTHECIN]	0.01 µg/mL (≈ 0.0287 µM)	0.03 µg/mL		
COc1cc(O)c2c(=O)cc(-c3ccc(O)cc3)oc2c1 [GENKWANIN]	8.7 µg/mL (≈ 30.6 µM)	> 10 µg/mL		IC50 [3]: 10 µg/mL (≈ 35.2 µM)
COc1cc(O)c2c(=O)cc(-c3cc(O)c(OC)c(OC)c3)oc2c1 [LETHEDOCIN]	16.4 µg/mL (≈ 47.6 µM)		inactive	
COc1cccc2c1C(=O)c1c(O)c3c(c(O)c1C2=O)C[C@@](O)(C(=O)CO)C[C@@H]3O[C@H]1C[C@H](N)[C@H](O)[C@H](C)O1 [DOXORUBICIN]	1.5 µg/mL (≈ 2.76 µM)			IC50 [3]: 0.005 µg/mL (≈ 0.0092 µM)
COc1ccc(-c2oc3cc(O)c(OC)c(O)c3c(=O)c2OC)cc1O [CENTAUREIDIN]	0.04 µg/mL (≈ 0.111 µM)			
O=c1c(O)c(-c2cc(O)c(O)c(O)c2)oc2cc(O)cc(O)c12				Activity [5]: Active; Activity [6]: Active
COc1cc(O)c2c(=O)cc(-c3ccc(OC)c(OC)c3)oc2c1	19.4 µg/mL (≈ 59.1 µM)		inactive	
COc1cc(O)c2c(=O)cc(-c3cc(OC)c(O)c(OC)c3)oc2c1	7.7 µg/mL (≈ 22.4 µM)	1 µg/mL	inactive	Activity [7]: inactive
O=c1c(O)c(-c2ccc(O)c(O)c2)oc2cc(O)ccc12				Activity [5]: Active; Activity [6]: Active
COc1cc(O)c2c(=O)cc(-c3ccc(O)c(OC)c3)oc2c1 [VELUTIN]		0.1 µg/mL		Activity [7]: inactive; IC50 [3]: 10 µg/mL (≈ 31.8 µM)
O=c1c(O)c(-c2ccc(O)c(O)c2)oc2cc(O)cc(O)c12				Activity [5]: Active; Activity [6]: Active
COc1cc(O)c2c(=O)cc(-c3cc(OC)c(OC)c(OC)c3)oc2c1 [CORYMBOSIN]	19.4 µg/mL (≈ 54.1 µM)		inactive	
